In patent publication US20060035940A1, “(S)-Amlodipine malate” (Sepracor Inc., priority 2004, published 2006):
Where a name gives a salt, the structure may show the parent alone. Read-outs that look alike come from different tables or passages of the source. One block for each compound: values may come before it.

Key:
[1] = Moisture balance (VTI SGA-100 sorption isotherm); format: physicochemical; conditions: equilibrated at 95% RH (sorption range 5% to 95% RH)
Description: Moisture-sorption data were collected on a VTI SGA-100 moisture balance system. […] The sample was not dried prior to analysis. Equilibrium criteria used for analysis were less than 0.0100 weight-percent change in 5 minutes with a maximum equilibration time of 3 hours if the weight criterion was not met. The data were not corrected for the initial moisture content of the sample.

[2] = Adhesion studies (tablet punch surfaces, blends with Avicel PH 101); format: physicochemical
Description: Avicel PH 101 and each (S)-amlodipine salt were pre-screened through a 25-mesh sieve to delump the powders prior to blending. […] Approximately 500 mg was weighed into the ½-inch tablet die, a tablet punch was added and 0.2 metric tons of pressure was applied using a Carver press for 2-3 seconds. The tablet was then removed, and the surfaces of the tablet punches (concave, SRC) were washed with mobile phase (1 mL). The wash was then assayed by HPLC. Three measurements were made for each blend.

[3] = format: physicochemical; conditions: for pH of saturated solution: DI H2O, ambient temperature
Description: The solution was sampled periodically, filtered using a 0.2 μm PTFE syringe filter and assayed by HPLC.
The sample was filtered through a 0.2 μm filter and assayed by HPLC.

Solid state stability = format: physicochemical; conditions: 60° C./75% RH
Description: Individual samples were prepared and stored at 25° C./60% RH and 40° C./75% RH. Samples stored at 60° C./75% RH were packaged in uncapped glass vials. All samples were analyzed for assay and impurity by HPLC.

[4] = Hygroscopicity and desolvation studies of crystal forms (XRPD); format: physicochemical; conditions: 31, 75, 84 and 95% relative humidity, approximately one week
Description: Hygroscopicity studies were performed by placing portions of a select form in a 11, 32, 45, 66, 75, 84% or 95% relative humidity (RH) chamber for approximately one to three weeks. Desolvation studies were carried out by heating each form in an 80° C. oven for approximately one week. Interconversion experiments were carried out by making slurries containing two forms in a saturated solvent. The slurries were agitated for approximately seven days at ambient temperature. The insoluble solids were recovered by filtration and analyzed using XRPD.

[5] = TGA, water content and moisture sorption profiles; format: physicochemical
Description: Moisture Sorption Isotherms: Moisture sorption isotherms were generated using VTI SGA-100 symmetric vapor sorption analyzer. Samples were not pre-dried. Equilibrium criteria were the lesser of 0.01 wt % change in 5 minutes or 180 minutes at each RH step. Temperature was fixed at 25° C. and the relative humidity steps (25% to 95% to 25%) were in 5% increments. In FIG. 27, adsorption data is shown as a solid line with desorption data connected by a dashed line. Water Content: Water content was determined by coulometric titration using an EM Science Aquastar® C300 Karl Fischer titrator. TGA: Samples were analyzed using Perkin Elmer TGA 7 thermal gravimetric analyzer at a heating rate of 10° C./min.

[6] = 5% (S)-Amlodipine salt in Avicel
[7] = 25% (S)-Amlodipine salt in Avicel

Compound: CCOC(=O)C1=C(COCCN)NC(C)=C(C(=O)OC)C1c1ccccc1Cl.O=C(O)CC(O)C(=O)O [form D′, (S)-Amlodipine-D-malate]
increase in weight (moisture balance) [1]: 0.3%

Adhesion [2, 6]: 4.9E−07 g (S)-amlodipine/cm^2 | Adhesion [2, 7]: 2.6E−06 g (S)-amlodipine/cm^2 | adhesion to solid dosage form manufacturing equipment compared to other salts ([2]; blended at typical levels with Avicel): decreased adhesion | pH of saturated solution ([3]; initial salt screen): 4.0 | pH of saturated solution ([3]; more recent sample): 3.56 | Free Base Concentration (solubility) ([3]; pH 3.56): 6000 µg/mL | Malate Concentration (solubility) ([3]; pH 3.56): 8000 µg/mL | Free Base Concentration (solubility) ([3]; pH 4): 10100 µg/mL | Malate Concentration (solubility) ([3]; pH 4): 13400 µg/mL | time for which solid was fairly stable (Solid state stability): > 2 months | crystal form after hygroscopicity study [4]: remained unchanged | Moisture Desorption ([5]; at 25% RH, 25° C.): 0.06 % wt remaining | Moisture Adsorption ([5]; at 95% RH, 25° C.): 0.24 % wt gain | KF water content ([5]; coulometric Karl Fischer): 0.13 % H2O | TGA ([5]; heating rate 10° C./min): 0.14 % wt loss | hygroscopicity ([5]; moisture sorption, TGA and Karl Fischer data): not hygroscopic | increase in weight (moisture balance) [1]: 0.5%
Compound: (S)-amlodipine L-malate

Compound: CCOC(=O)C1=C(COCCN)NC(C)=C(C(=O)OC)[C@@H]1c1ccccc1Cl.O=C(O)C(O)C(O)C(=O)O [(S)-amlodipine D-tartrate]
Adhesion [2, 6]: 6.0E−07 g (S)-amlodipine/cm^2 | Adhesion [2, 7]: 2.8E−06 g (S)-amlodipine/cm^2

Compound: O=C(O)[C@H](O)[C@@H](O)C(=O)O [(L)-Tartrate]
Adhesion [2, 6]: 9.3E−07 g (S)-amlodipine/cm^2 | Adhesion [2, 7]: 4.9E−06 g (S)-amlodipine/cm^2

Compound: CCOC(=O)C1=C(COCCN)NC(C)=C(C(=O)OC)[C@@H]1c1ccccc1Cl [(S)-amlodipine maleate]
Adhesion [2, 6]: 5.8E−07 g (S)-amlodipine/cm^2 | Adhesion [2, 7]: 3.9E−06 g (S)-amlodipine/cm^2
